Source: patent publication US11407760B2, “Dioxinoquinoline compounds, preparation method and uses thereof” (BEIJING SCITECH-MQ PHARMACEUTICALS LIMITED, priority 2018, dated 2022)

What was measured:
c-MET kinase = c-MET kinase (Homo sapiens (Human), UniProt P08581); experiment: Assay of small molecular compounds for inhibiting the activity of c-MET kinase (LANCE TR-FRET); assay type: biochemical; settings: c-MET tyrosine kinase, 60 min reaction
Procedure: Biological Example 1. Assay of Small Molecular Compounds for Inhibiting the Activity of c-MET Kinase
(§1) The assay is based on the LANCE TR-FRET technology of Perkin Elmer Inc., and the assay method is as follows:
(§2) 1. Dilution of compounds: a total of 11 concentrations were obtained using a 3-fold gradient dilution from the highest concentration of 2500 nM (the maximum final concentration of the drug used in this assay was 2500 nM, and the minimum final concentration was 0.042 nM).
(§3) 2. 2.5 μL of the gradient-diluted compounds were taken with a transfer pipette to a 384-well plate.
3. Addition of enzyme: 5 μL of 2× c-MET kinase solution (concentration was 2 nM) was taken with a transfer pipette to the corresponding reaction well of the 384-well plate, mixed well and pre-reacted at room temperature for 5 minutes.
4. 2.5 μL 4× Ultra ULight™-JAK-1 (Tyr1023) Peptide (concentration was 400 nM)/ATP (concentration was 40 μM) mixture was taken with a transfer pipette to the corresponding reaction well of the 384-well plate.
(§4) 5. Negative control: 2.5 μL/well 4× substrate/ATP mixture and 7.5 μL 1× Kinase Assay Buffer were added to the wells of the 384-well plate.
6. Positive control: 2.5 μL/well 4× substrate/ATP mixture, 2.5 μL/well 1× Kinase Assay Buffer containing 16% DMSO, and 5 µL/well 2× c-MET kinase solution were added to the 384-well plate. The final concentration of DMSO in the reaction system was 4%.
(§5) 7. The mixture was mixed well and then centrifuged and reacted at room temperature in dark for 60 min.
(§6) 8. Termination of the enzymatic reaction: 5 μL of 4× stop solution was taken with a transfer pipette to the wells of the 384-well plate, mixed and then centrifuged, and reacted at room temperature for 5 min.
(§7) 9. Development of the reaction: 5 μL of 4× detection solution was taken with a transfer pipette to the wells of the 384-well plate for color development, and the mixture was mixed and then centrifuged and reacted at room temperature for 60 min.
(§8) 10. The 384-well plate was placed into the Envision plate reader and the signal was detected using the appropriate program.
11. […]

VEGFR-2 kinase = VEGFR-2 kinase (Homo sapiens (Human), UniProt P35968); experiment: Assay of small molecular compounds for inhibiting the activity of VEGFR-2 kinase (LANCE TR-FRET); assay type: biochemical; settings: VEGFR-2 tyrosine kinase, 60 min reaction
Chain of VEGFR-2 kinase (P35968 20-1356): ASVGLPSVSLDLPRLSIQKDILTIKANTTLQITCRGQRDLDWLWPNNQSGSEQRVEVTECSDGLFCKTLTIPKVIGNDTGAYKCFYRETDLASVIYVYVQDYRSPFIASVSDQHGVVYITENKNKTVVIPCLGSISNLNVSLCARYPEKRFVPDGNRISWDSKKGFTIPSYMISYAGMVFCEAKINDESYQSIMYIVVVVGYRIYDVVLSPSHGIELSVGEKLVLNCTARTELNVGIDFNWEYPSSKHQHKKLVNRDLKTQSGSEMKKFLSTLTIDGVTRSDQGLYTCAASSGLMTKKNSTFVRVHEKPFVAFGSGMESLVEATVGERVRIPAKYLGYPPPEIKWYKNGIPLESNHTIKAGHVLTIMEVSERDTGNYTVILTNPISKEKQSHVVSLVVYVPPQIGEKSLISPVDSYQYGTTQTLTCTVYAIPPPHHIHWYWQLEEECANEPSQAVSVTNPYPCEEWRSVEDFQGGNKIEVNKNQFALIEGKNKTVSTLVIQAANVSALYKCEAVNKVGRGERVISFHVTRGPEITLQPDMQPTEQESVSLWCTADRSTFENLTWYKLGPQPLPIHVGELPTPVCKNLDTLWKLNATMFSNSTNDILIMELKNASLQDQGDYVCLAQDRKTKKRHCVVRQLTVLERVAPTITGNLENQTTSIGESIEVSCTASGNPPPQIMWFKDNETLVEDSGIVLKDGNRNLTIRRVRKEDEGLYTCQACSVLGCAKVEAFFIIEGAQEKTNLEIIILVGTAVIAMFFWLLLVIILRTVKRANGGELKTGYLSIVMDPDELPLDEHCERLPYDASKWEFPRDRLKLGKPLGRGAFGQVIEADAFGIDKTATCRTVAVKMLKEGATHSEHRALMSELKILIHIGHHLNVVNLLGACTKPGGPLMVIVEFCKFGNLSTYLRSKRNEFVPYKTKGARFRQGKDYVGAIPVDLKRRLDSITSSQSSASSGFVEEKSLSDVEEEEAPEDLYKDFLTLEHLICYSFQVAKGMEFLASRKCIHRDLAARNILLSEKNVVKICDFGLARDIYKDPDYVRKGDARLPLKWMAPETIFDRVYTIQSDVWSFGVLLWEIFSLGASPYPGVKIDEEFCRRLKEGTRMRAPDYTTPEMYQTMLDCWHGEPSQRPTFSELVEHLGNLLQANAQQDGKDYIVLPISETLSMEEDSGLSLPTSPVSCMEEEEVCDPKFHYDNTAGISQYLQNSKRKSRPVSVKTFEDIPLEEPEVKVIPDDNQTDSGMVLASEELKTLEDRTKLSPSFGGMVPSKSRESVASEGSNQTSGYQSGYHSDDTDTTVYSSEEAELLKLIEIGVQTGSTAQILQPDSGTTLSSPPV
Procedure: Biological Example 2. Assay of Small Molecular Compounds for Inhibiting the Activity of VEGFR-2 Kinase
as §1, §2, §3
3. Addition of enzyme: 5 μL of 2× VEGFR-2 kinase solution (concentration was 0.5 nM) was taken with a transfer pipette to the corresponding reaction well of the 384-well plate, mixed well and pre-reacted at room temperature for 30 minutes.
4. 2.5 μL 4× Ultra ULight™-JAK-1 (Tyr1023) Peptide (concentration was 200 nM)/ATP (concentration was 40 μM) mixture was taken with a transfer pipette to the corresponding reaction well of the 384-well plate.
as §4
6. Positive control: 2.5 μL/well 4× substrate/ATP mixture, 2.5 μL/well 1× Kinase Assay Buffer containing 16% DMSO, and 5 μL/well 2× VEGFR-2 kinase solution were added to the 384-well plate. The final concentration of DMSO in the reaction system was 4%.
as §5, §6, §7, §8
11. Analysis and processing of the raw data:
The drug concentrations and the corresponding inhibition rates were input into GraphPad Prism5 for calculation, and the inhibition rate of the compounds were calculated as follows: inhibition rate (%)=(reading of positive well−reading of experimental well)/(reading of positive control well−reading of negative control well)×100%. Processing with GraphPad Prism5 software yielded the corresponding IC50 values (the concentration of the compound at which 50% of the highest inhibition of the enzyme is achieved).

MHCC97H cells = experiment: Inhibitory activity on the proliferation of MHCC97H cells (CCK-8); assay type: cell-based; settings: Homo sapiens, MHCC97H cell proliferation, 72 hours of incubation
Procedure: Biological Example 3. Assay of the Inhibitory Activity of Small Molecular Compounds on the Proliferation of MHCC97H Cells
The specific steps of the assay are as follows:
1. Dilution of compounds: a total of 9 concentrations were obtained using a 3-fold gradient dilution from the highest concentration of 5000 nM (the maximum final concentration of the drug used in this assay was 5000 nM, and the minimum final concentration was 0.76 nM).
2. MHCC97H cells were collected, then transferred to a 15 mL centrifuge tube, and centrifuged at 1000 rpm for 5 minutes.
3. The supernatant was discarded, and the complete medium was added and pipetted evenly, 10 μL of cell suspension was taken out and mixed evenly with 10 μL of 0.4% trypan blue, the counting was carried out with a cell counter, and the number and survival rate of cells were recorded;
4. The cell suspension was seeded into a 96-well plate at 5000 cells/80 μL per well;
5. 20 μL of the corresponding 5× compound solution diluted with the medium mentioned above was added to each well and mixed evenly;
6. After 72 hours of incubation, 10 μL of CCK-8 reagent was added to each well and incubated for another 2 hours (the reaction time can be adjusted according to the color depth);
7. The OD value was read at 450 nm on a multi-function plate reader.
8. Data processing: cell survival rate (%)=[(As−Ab)/(Ac−Ab)]*100%
As: OD value of assay well (medium containing cells, CCK-8, compound),
Ac: OD value of control well (medium containing cells, CCK-8),
Ab: OD value of blank well (CCK-8, medium without cell and compound),
The values were then imported into Graphpad Prism5 software for curve fitting, and IC50 was calculated.
Table 3 lists the assay results of the inhibitory activity of some compounds disclosed herein on the proliferation of the MHCC97H cell line.

Chain of c-MET kinase (P08581 25-1390): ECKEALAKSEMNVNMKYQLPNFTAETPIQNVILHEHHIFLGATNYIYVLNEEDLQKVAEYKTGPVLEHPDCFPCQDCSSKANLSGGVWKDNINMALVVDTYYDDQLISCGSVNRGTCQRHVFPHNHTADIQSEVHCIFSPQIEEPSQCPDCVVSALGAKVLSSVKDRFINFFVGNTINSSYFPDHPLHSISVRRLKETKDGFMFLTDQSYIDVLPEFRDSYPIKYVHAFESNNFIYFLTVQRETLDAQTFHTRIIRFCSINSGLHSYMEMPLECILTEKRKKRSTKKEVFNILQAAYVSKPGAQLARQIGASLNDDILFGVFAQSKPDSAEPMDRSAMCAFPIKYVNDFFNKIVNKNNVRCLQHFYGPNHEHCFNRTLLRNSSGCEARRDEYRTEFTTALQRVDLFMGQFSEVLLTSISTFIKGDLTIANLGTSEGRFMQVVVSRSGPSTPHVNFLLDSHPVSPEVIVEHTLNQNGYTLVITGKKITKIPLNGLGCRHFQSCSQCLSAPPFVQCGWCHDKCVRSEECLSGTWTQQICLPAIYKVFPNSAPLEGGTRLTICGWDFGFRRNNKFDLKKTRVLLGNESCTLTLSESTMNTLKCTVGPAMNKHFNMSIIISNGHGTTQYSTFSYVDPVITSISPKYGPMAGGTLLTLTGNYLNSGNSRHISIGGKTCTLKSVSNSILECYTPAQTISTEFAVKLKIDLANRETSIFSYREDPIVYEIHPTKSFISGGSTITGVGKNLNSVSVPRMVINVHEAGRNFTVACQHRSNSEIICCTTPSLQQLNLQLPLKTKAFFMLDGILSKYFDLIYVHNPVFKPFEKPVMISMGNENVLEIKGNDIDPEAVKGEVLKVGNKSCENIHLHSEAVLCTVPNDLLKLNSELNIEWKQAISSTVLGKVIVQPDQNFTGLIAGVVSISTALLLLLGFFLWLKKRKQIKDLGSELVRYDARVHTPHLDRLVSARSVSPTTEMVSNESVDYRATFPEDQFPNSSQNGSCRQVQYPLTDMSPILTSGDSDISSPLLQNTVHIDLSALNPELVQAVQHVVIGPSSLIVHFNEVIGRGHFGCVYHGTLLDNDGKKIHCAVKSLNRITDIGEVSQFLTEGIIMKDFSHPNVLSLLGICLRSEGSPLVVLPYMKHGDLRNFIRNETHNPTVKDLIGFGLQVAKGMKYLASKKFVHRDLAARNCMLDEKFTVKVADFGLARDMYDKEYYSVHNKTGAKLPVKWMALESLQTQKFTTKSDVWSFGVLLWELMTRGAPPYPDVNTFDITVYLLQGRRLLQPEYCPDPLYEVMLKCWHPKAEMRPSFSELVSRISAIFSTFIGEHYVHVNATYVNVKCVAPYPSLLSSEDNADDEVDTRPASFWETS

Structure (SMILES) | IC50 (c-MET kinase) [nM] | IC50 (VEGFR-2 kinase) [nM] | IC50 (MHCC97H cells) [nM]
O=C(Nc1ccc(F)cc1)C1(C(=O)Nc2ccc(Oc3ccnc4cc(OCC5CC5)c5c(c34)OCCO5)c(F)c2)CC1 [Example 11, N-(4-((5-(cyclopropylmethoxy)-2,3-dihydro-[1,4]dioxino[2,3-f]quinolin-10-yl)oxy)-3-fluorophenyl)-N-(4-fluorophenyl)cyclopropan-1,1-dicarboxamide] | 50 to 500 | – | –
CC(C)COc1cc2nccc(Oc3ccc(NC(=O)C4(C(=O)Nc5ccc(F)cc5)CC4)cc3F)c2c2c1OCCO2 [Example 12, N-(4-((5-(isobutyloxy)-2,3-dihydro-[1,4]dioxino[2,3-f]quinolin-10-yl)oxy)-3-fluorophenyl)-N-(4-fluorophenyl)cyclopropan-1,1-dicarboxamide] | 50 to 500 | – | –
O=C(Nc1ccc(F)cc1)C1(C(=O)Nc2ccc(Oc3ccnc4cc(OC5CCOCC5)c5c(c34)OCCO5)c(F)c2)CC1 [Example 18, N-(3-fluoro-4-((5-((tetrahydropyran-4-yl)oxy)-2,3-dihydro-[1,4]dioxino[2,3-f]quinolin-10-yl)oxy)phenyl)-N-(4-fluorophenyl)cyclopropan-1,1-dicarboxamide] | – | 50 to 500 | –
CC(=O)N1CCN(CCCOc2cc3nccc(Oc4ccc(NC(=O)C5(C(=O)Nc6ccc(F)cc6)CC5)cc4F)c3c3c2OCCO3)CC1 [Example 19] | ≤ 50 | ≤ 50 | < 50
N#CCOc1cc2nccc(Oc3ccc(NC(=O)C4(C(=O)Nc5ccc(F)cc5)CC4)cc3F)c2c2c1OCCO2 [Example 20, N-(4-((5-(cyanomethoxy)-2,3-dihydro-[1,4]dioxino[2,3-f]quinolin-10-yl)oxy)-3-fluorophenyl)-N-(4-fluorophenyl)cyclopropan-1,1-dicarboxamide] | – | 50 to 500 | < 50
CC1(N)CCN(CCCOc2cc3nccc(Oc4ccc(NC(=O)C5(C(=O)Nc6ccc(F)cc6)CC5)cc4F)c3c3c2OCCO3)CC1 [Example 30, N-(3-fluoro-4-((5-(3-(4-amino-4-methylpiperidin-1-yl)propoxy)-2,3-dihydro-[1,4]dioxino[2,3-f]quinolin-10-yl)oxy)phenyl)-N-(4-fluorophenyl)cyclopropan-1,1-dicarboxamide] | – | – | < 500
O=C(Nc1ccc(F)cc1)C1(C(=O)Nc2ccc(Oc3ccnc4cc(OCCO)c5c(c34)OCCO5)c(F)c2)CC1 [Example 32, N-(3-fluoro-4-((5-(2-hydroxyethoxy)-2,3-dihydro-[1,4]dioxino[2,3-f]quinolin-10-yl)oxy)phenyl)-N-(4-fluorophenyl)cyclopropan-1,1-dicarboxamide] | – | – | < 50
NC1(COc2cc3nccc(Oc4ccc(NC(=O)C5(C(=O)Nc6ccc(F)cc6)CC5)cc4F)c3c3c2OCCO3)CC1 [Example 33, N-(4-((5-((1-aminocyclopropyl)methoxy)-2,3-dihydro-[1,4]dioxino[2,3-f]quinolin-10-yl)oxy)-3-fluorophenyl)-N-(4-fluorophenyl)cyclopropan-1,1-dicarboxamide] | – | – | < 50
COc1cc2nccc(Oc3cc(Cl)c(NC(=O)C4(C(=O)Nc5ccc(F)cc5)CC4)cc3F)c2c2c1OCCO2 [Example 35, N-(2-chloro-5-fluoro-4-((5-methoxy-2,3-dihydro-[1,4]dioxino[2,3-f]quinolin-10-yl)oxy)phenyl)-N-(4-fluorophenyl)cyclopropan-1,1-dicarboxamide] | – | – | < 50
O=C(Nc1ccc(F)cc1)C1(C(=O)Nc2ccc(Oc3ccnc4cc(OCCCN5CCOCC5)c5c(c34)OCCO5)cc2Cl)CC1 [Example 36, N-(2-chloro-4-((5-(3-morpholinopropoxy)-2,3-dihydro-[1,4]dioxino[2,3-f]quinolin-10-yl)oxy)phenyl)-N-(4-fluorophenyl)cyclopropan-1,1-dicarboxamide] | – | 50 to 500 | < 50
